Experimental data from patent publication US12077503B2, “Substituted cyclic amides and their use as herbicides” (FMC CORPORATION, priority 2015, dated 2024).
Read-outs that look alike come from different tables or passages of the source.

Legend:
Type in all cases: in vivo
[1] = tested on: ragweed (common ragweed, Ambrosia elatior); assay: Test A preemergence; conditions: Ambrosia artemisiifolia, pre-emergence, 240 h, 0 to 100 scale where 0 is no effect and 100 is complete control, read-out: Ragweed plant response rating; for pest or weed control at 31 g/ha: 31 g ai/ha, Preemergence; for pest or weed control at 125 g/ha: 125 g ai/ha, preemergence, approx. 10 d
Procedure, shortened: (§1)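 Visual injury scores from 0, no effect, to 100, complete control, were assigned versus untreated controls roughly 10 d after treatment in the greenhouse. Test chemicals, formulated with surfactant in a non-phytotoxic solvent, were applied to planted seeds as a preemergence soil spray or postemergence to one- to two-leaf plants 2 to 10 cm tall, in loam–sand soil.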

[2] = tested on: barnyardgrass (Echinochloa crus-galli); assay: Test A preemergence; conditions: Echinochloa crus-galli, pre-emergence, 240 h, 0 to 100 scale where 0 is no effect and 100 is complete control, read-out: Barnyardgrass plant response rating; for pest or weed control at 31 g/ha: 31 g ai/ha, Preemergence; for pest or weed control at 125 g/ha: 125 g ai/ha, preemergence, approx. 10 d
Procedure, shortened: as §1

[3] = tested on: pigweed (Amaranthus retroflexus); assay: Test A preemergence; conditions: Amaranthus retroflexus, pre-emergence, 240 h, 0 to 100 scale where 0 is no effect and 100 is complete control, read-out: Pigweed plant response rating; for pest or weed control at 31 g/ha: 31 g ai/ha, Preemergence; for pest or weed control at 125 g/ha: 125 g ai/ha, preemergence, approx. 10 d
[4] = tested on: Kochia (Kochia scoparia); assay: Test A preemergence; conditions: Bassia scoparia, pre-emergence, 240 h, 0 to 100 scale where 0 is no effect and 100 is complete control, read-out: Kochia plant response rating; for pest or weed control at 31 g/ha: 31 g ai/ha, Preemergence; for pest or weed control at 125 g/ha: 125 g ai/ha, preemergence, approx. 10 d
Procedure, shortened: as §1

[5] = tested on: giant foxtail (Setaria faberii); assay: Test A preemergence; conditions: Setaria faberi, pre-emergence, 240 h, 0 to 100 scale where 0 is no effect and 100 is complete control, read-out: Foxtail, Giant plant response rating; for pest or weed control at 31 g/ha: 31 g ai/ha, Preemergence; for pest or weed control at 125 g/ha: 125 g ai/ha, preemergence, approx. 10 d
Procedure, shortened: as §1

[6] = tested on: ryegrass, Italian (Italian ryegrass, Lolium multiflorum); assay: Test A preemergence; conditions: Lolium multiflorum, pre-emergence, 240 h, 0 to 100 scale where 0 is no effect and 100 is complete control, read-out: Ryegrass, Italian plant response rating; for pest or weed control at 31 g/ha: 31 g ai/ha, Preemergence; for pest or weed control at 125 g/ha: 125 g ai/ha, preemergence, approx. 10 d
Procedure, shortened: as §1

[7] = tested on: rice (Oryra sativa); assay: Test B flooded paddy test; conditions: Oryza sativa, 250 g ai/ha, Flood; 0 to 100 scale where 0 is no effect and 100 is complete control; read-out: Rice plant response rating
Procedure, shortened: (§2)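 Rating scale 0–100 (visual, vs untreated controls) after a 13–15 d greenhouse period; application to the flood layer, 3 cm above soil and maintained; plants at 2-leaf stage when treated.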

[8] = tested on: barnyardgrass (Echinochloa crus-galli); assay: Test B flooded paddy test; conditions: Echinochloa crus-galli, 250 g ai/ha, Flood; 0 to 100 scale where 0 is no effect and 100 is complete control; read-out: Barnyardgrass plant response rating
Procedure, shortened: as §2

[9] = tested on: sedge, umbrella (small-flower umbrella sedge, Cyperus difformis); assay: Test B flooded paddy test; conditions: Cyperus difformis, 250 g ai/ha, Flood; 0 to 100 scale where 0 is no effect and 100 is complete control; read-out: Sedge, Umbrella plant response rating
Procedure, shortened: as §2

[10] = tested on: ducksalad (Heteranthera limosa); assay: Test B flooded paddy test; conditions: Heteranthera limosa, 250 g ai/ha, Flood; 0 to 100 scale where 0 is no effect and 100 is complete control; read-out: Ducksalad plant response rating
Procedure, shortened: as §2

[11] = tested on: Galium (catchweed bedstraw, Galium aparine); assay: Test A postemergence; conditions: Galium, post-emergence, 240 h; for pest or weed control at 125 g/ha: 125 g ai/ha, postemergence, visual injury on 0 to 100 scale (0 no effect, 100 complete control), approx. 10 d, read-out: Galium plant response rating; for pest or weed control at 31 g/ha: Postemergence, 31 g ai/ha, visual injury after approx. 10 d, 0 to 100 scale, 0 no effect, 100 complete control, read-out: Plant response rating, Galium
Procedure, shortened: as §1

[12] = tested on: ragweed (common ragweed, Ambrosia elatior); assay: Test A postemergence; conditions: Ambrosia artemisiifolia, post-emergence, 240 h; for pest or weed control at 125 g/ha: 125 g ai/ha, postemergence; for pest or weed control at 31 g/ha: Postemergence, 31 g ai/ha, visual injury after approx. 10 d, 0 to 100 scale, 0 no effect, 100 complete control, read-out: Plant response rating, Ragweed
Procedure, shortened: as §1

[13] = tested on: corn (Zea mays); assay: Test A postemergence; conditions: Zea mays, post-emergence, 240 h; for plant injury at 125 g/ha: 125 g ai/ha, postemergence, visual injury on 0 to 100 scale (0 no effect, 100 complete control), approx. 10 d, read-out: Corn plant response rating; for Corn plant response rating (crop injury, 0 = no effect, 100 = complete kill) at 31 g/ha: Postemergence, 31 g ai/ha, visual injury after approx. 10 d, 0 to 100 scale, 100 complete control
Procedure, shortened: as §1

[14] = tested on: barnyardgrass (Echinochloa crus-galli); assay: Test A postemergence; conditions: Echinochloa crus-galli, post-emergence, 240 h; for pest or weed control at 125 g/ha: 125 g ai/ha, postemergence, visual injury on 0 to 100 scale (0 no effect, 100 complete control), approx. 10 d, read-out: Barnyardgrass plant response rating; for pest or weed control at 31 g/ha: Postemergence, 31 g ai/ha, visual injury after approx. 10 d, 0 to 100 scale, 0 no effect, 100 complete control, read-out: Plant response rating, Barnyardgrass
Procedure, shortened: as §1

[15] = tested on: pigweed (Amaranthus retroflexus); assay: Test A postemergence; conditions: Amaranthus retroflexus, post-emergence, 240 h; for pest or weed control at 125 g/ha: 125 g ai/ha, postemergence; for pest or weed control at 31 g/ha: Postemergence, 31 g ai/ha, visual injury after approx. 10 d, 0 to 100 scale, 0 no effect, 100 complete control, read-out: Plant response rating, Pigweed
Procedure, shortened: as §1

[16] = tested on: Kochia (Kochia scoparia); assay: Test A postemergence; conditions: Bassia scoparia, post-emergence, 240 h; for pest or weed control at 125 g/ha: 125 g ai/ha, postemergence, visual injury on 0 to 100 scale (0 no effect, 100 complete control), approx. 10 d, read-out: Kochia plant response rating; for pest or weed control at 31 g/ha: Postemergence, 31 g ai/ha, visual injury after approx. 10 d, 0 to 100 scale, 0 no effect, 100 complete control, read-out: Plant response rating, Kochia
Procedure, shortened: as §1

[17] = tested on: wheat (Triticum aestivum); assay: Test A postemergence; conditions: Triticum aestivum, post-emergence, 240 h; for plant injury at 125 g/ha: 125 g ai/ha, postemergence; for plant injury at 31 g/ha: Postemergence, 31 g ai/ha, visual injury after approx. 10 d, 0 to 100 scale, 0 no effect, 100 complete control, read-out: Plant response rating, Wheat
Procedure, shortened: as §1

[18] = tested on: giant foxtail (Setaria faberii); assay: Test A postemergence; conditions: Setaria faberi, post-emergence, 240 h; for pest or weed control at 125 g/ha: 125 g ai/ha, postemergence, visual injury on 0 to 100 scale (0 no effect, 100 complete control), approx. 10 d, read-out: Foxtail, Giant plant response rating; for pest or weed control at 31 g/ha: Postemergence, 31 g ai/ha, visual injury after approx. 10 d, 0 to 100 scale, 0 no effect, 100 complete control, read-out: Plant response rating, Foxtail, Giant
Procedure, shortened: as §1

[19] = tested on: blackgrass (Alopecurus myosuroides); assay: Test A postemergence; conditions: Alopecurus myosuroides, post-emergence, 240 h; for pest or weed control at 125 g/ha: 125 g ai/ha, postemergence, visual injury on 0 to 100 scale (0 no effect, 100 complete control), approx. 10 d, read-out: Blackgrass plant response rating; for pest or weed control at 31 g/ha: Postemergence, 31 g ai/ha, visual injury after approx. 10 d, 0 to 100 scale, 0 no effect, 100 complete control, read-out: Plant response rating, Blackgrass
Procedure, shortened: as §1

[20] = tested on: ryegrass, Italian (Italian ryegrass, Lolium multiflorum); assay: Test A postemergence; conditions: Lolium multiflorum, post-emergence, 240 h; for pest or weed control at 125 g/ha: 125 g ai/ha, postemergence; for pest or weed control at 31 g/ha: Postemergence, 31 g ai/ha, visual injury after approx. 10 d, 0 to 100 scale, 0 no effect, 100 complete control, read-out: Plant response rating, Ryegrass, Italian
Procedure, shortened: as §1

Structure (SMILES) | pest or weed control at 31 g/ha [1] [%] | pest or weed control at 125 g/ha [1] [%] | pest or weed control at 31 g/ha [2] [%] | pest or weed control at 125 g/ha [2] [%] | pest or weed control at 31 g/ha [3] [%] | pest or weed control at 125 g/ha [3] [%] | pest or weed control at 31 g/ha [4] [%] | pest or weed control at 125 g/ha [4] [%] | pest or weed control at 31 g/ha [5] [%] | pest or weed control at 125 g/ha [5] [%] | pest or weed control at 31 g/ha [6] [%] | pest or weed control at 125 g/ha [6] [%] | pest or weed control at 250 g/ha [7] [%] | pest or weed control at 250 g/ha [8] [%] | pest or weed control at 250 g/ha [9] [%] | pest or weed control at 250 g/ha [10] [%] | pest or weed control at 125 g/ha [11] [%] | pest or weed control at 31 g/ha [11] [%] | pest or weed control at 31 g/ha [12] [%] | plant injury at 125 g/ha [13] [%] | other results
O=C1NC[C@H](c2ccc(C(F)(F)F)cn2)[C@H]1C(=O)Nc1cccc(F)c1F [Compound 1104] | 0 | 0 | 0 | 50 | 0 | 0 | 0 | 0 | 0 | 70 | 0 | 0 | 20 | 40 | 0 | 100 | 0 | 0 | 0 | 0 | pest or weed control at 125 g/ha ([12]; visual injury on 0 to 100 scale (0 no effect, 100 complete control), approx. 10 d, read-out: Ragweed plant response rating): 0%; Corn plant response rating (crop injury, 0 = no effect, 100 = complete kill) at 31 g/ha [13]: 0%; pest or weed control at 125 g/ha [14]: 30%; pest or weed control at 31 g/ha [14]: 0%; pest or weed control at 125 g/ha ([15]; visual injury on 0 to 100 scale (0 no effect, 100 complete control), approx. 10 d, read-out: Pigweed plant response rating): 0%; pest or weed control at 31 g/ha [15]: 0%; pest or weed control at 125 g/ha [16]: 0%; pest or weed control at 31 g/ha [16]: 0%; plant injury at 125 g/ha ([17]; visual injury on 0 to 100 scale (0 no effect, 100 complete control), approx. 10 d, read-out: Wheat plant response rating): 0%; plant injury at 31 g/ha [17]: 0%; pest or weed control at 125 g/ha [18]: 0%; pest or weed control at 31 g/ha [18]: 0%; pest or weed control at 125 g/ha [19]: 0%; pest or weed control at 31 g/ha [19]: 0%; pest or weed control at 125 g/ha ([20]; visual injury on 0 to 100 scale (0 no effect, 100 complete control), approx. 10 d, read-out: Ryegrass, Italian plant response rating): 0%; pest or weed control at 31 g/ha [20]: 0%
CC(O)c1ccccc1NC(=O)C1C(=O)N(C)CC1c1cccc(C(F)(F)F)c1 (stereo not drawn) [Compound 1147] | 0 | 0 | 0 | 20 | 0 | 0 | 0 | 0 | 0 | 20 | 0 | 0 | 15 | 0 | 0 | 0 | 0 | 0 | 0 | 0 | pest or weed control at 125 g/ha ([12]; visual injury vs untreated controls after approx. 10 d, 0 = no effect, 100 = complete control, read-out: Ragweed plant response rating (0 to 100 scale)): 0%; Corn plant response rating (crop injury, 0 = no effect, 100 = complete kill) at 31 g/ha [13]: 0%; pest or weed control at 125 g/ha [14]: 0%; pest or weed control at 31 g/ha [14]: 0%; pest or weed control at 125 g/ha ([15]; visual injury vs untreated controls after approx. 10 d, 0 = no effect, 100 = complete control, read-out: Pigweed plant response rating (0 to 100 scale)): 0%; pest or weed control at 31 g/ha [15]: 0%; pest or weed control at 125 g/ha [16]: 0%; pest or weed control at 31 g/ha [16]: 0%; plant injury at 125 g/ha ([17]; visual injury vs untreated controls after approx. 10 d, 0 = no effect, 100 = complete control, read-out: Wheat plant response rating (0 to 100 scale)): 0%; plant injury at 31 g/ha [17]: 0%; pest or weed control at 125 g/ha [18]: 0%; pest or weed control at 31 g/ha [18]: 0%; pest or weed control at 125 g/ha [19]: 0%; pest or weed control at 31 g/ha [19]: 0%; pest or weed control at 125 g/ha ([20]; visual injury vs untreated controls after approx. 10 d, 0 = no effect, 100 = complete control, read-out: Ryegrass, Italian plant response rating (0 to 100 scale)): 0%; pest or weed control at 31 g/ha [20]: 0%
